Results published in US7718704B2, “Immunosuppressant compounds and compositions” (IRM LLC, priority 2004, dated 2010).

How the values were obtained:
[1] = test system: EDG-3, EDG-5, EDG-6 and EDG-8; experiment: EDG-3, -5, -6 and -8 GTP [γ-35S] binding assays (selectivity versus EDG-1); format: biochemical, human
Procedure: (§1) A. In vitro: A scintillation proximity assay (SPA) for measuring GTP [γ-^35S]binding to membranes prepared from CHO cells expressing human EDG/S1P receptors.
Concentrations of EDG receptor expressing membranes range between 13-19 μg per well.

[2] = biological target: T1, human EDG-1 (Homo sapiens, UniProt P21453); experiment: EDG-1 (S1P1) GTP [γ-35S] binding assay (SPA); format: biochemical; conditions: membranes of CHO cells expressing human EDG-1
T1 construct: c-myc (N); expressed in transfected cells; host or cells: CHO cell clones (membrane preparation)
Procedure: as §1
EDG-1 (S1P1) GTP [γ-^35S] binding assay: Membrane protein suspensions are prepared from CHO cell clones stably expressing a human EDG-1 N-terminal c-myc tag. Solution of test compounds ranging from 10 mM to 0.01 nM are prepared in DMSO/50 mM HCl and then diluted into assay buffer (20 mM HEPES, pH7.4, 100 mM NaCl, […], 0.1% fat free BSA). Assay buffer containing 10 mM GDP is mixed with wheat germ agglutinin-coated SPA-beads (1 mg/well) followed by the addition of human EDG-1 membrane protein suspension (10 μg/well) and test compound. The bead/membrane/compound assay components are then mixed for 10-15 minutes on a shaker at room temperature. GTP [γ-^35S] ([…]) and bead/membrane/compound assay mixture are added to individual wells of a 96 well Optiplate™(final volume 225 μl/well), sealed and incubated at room temperature for 110 to 120 minutes under constant shaking. After centrifugation (2000 rpm, 10 minutes) luminescence is measured with a TopCount™ instrument.
EC50 values are obtained by fitting the GTP [γ-^35S] binding curves (raw data) with the dose response curve-fitting tool of ORIGIN V. 6.1. […]

[3] = test system: peripheral blood lymphocytes; experiment: Measurement of circulating lymphocytes (blood lymphocyte depletion); format: in vivo, mice (C57bl/6 male); conditions: Mus musculus, mice, oral gavage, blood collected 6 and 24 hours after administration, read-out: ED50, effective dose required displaying 50% of blood lymphocyte depletion
Procedure: Measurements of circulating lymphocytes: Compounds are dissolved in DMSO and diluted to obtain a final concentration of 4% DMSO (v/v, final concentration) and then further diluted in a constant volume of Tween80 25%/H2O, v/v. Tween80 25%/H2O (200 μl), 4% DMSO, and FTY720 (10 μg) are included as negative and positive controls, respectively. Mice (C57bl/6 male, 6-10 week-old) are administered 250-300 μL of compound solution orally by gavages under short isoflurane anesthesia.
Blood is collected from the retro-orbital sinus 6 and 24 hours after drug administration under short isoflurane anesthesia. Whole blood samples are subjected to hematology analysis. Peripheral lymphocyte counts are determined using an automated analyzer. Subpopulations of peripheral blood lymphocytes are stained by fluorochrome-conjugated specific antibodies and analyzed using a fluorescent activating cell sorter (Facscalibur). Two mice are used to assess the lymphocyte depletion activity of each compound screened. The result is an ED50, which is defined as the effective dose required displaying 50% of blood lymphocyte depletion.

T1 sequence (P21453 whole entry): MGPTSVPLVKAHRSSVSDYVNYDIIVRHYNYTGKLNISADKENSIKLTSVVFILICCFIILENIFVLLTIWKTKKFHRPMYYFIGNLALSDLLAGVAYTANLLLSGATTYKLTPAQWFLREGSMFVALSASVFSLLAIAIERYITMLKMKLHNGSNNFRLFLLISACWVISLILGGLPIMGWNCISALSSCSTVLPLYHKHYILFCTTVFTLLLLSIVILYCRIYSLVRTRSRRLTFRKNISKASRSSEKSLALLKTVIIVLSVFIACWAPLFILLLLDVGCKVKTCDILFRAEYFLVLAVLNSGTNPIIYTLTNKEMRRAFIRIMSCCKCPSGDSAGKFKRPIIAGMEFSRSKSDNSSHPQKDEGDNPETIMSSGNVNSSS

SMILES	selectivity for EDG-1 compared to one or more of the other receptors including EDG-3, EDG-5, EDG-6 and EDG-8 [1]	EC50 [2] [nM]	ED50 [3] [mg/kg]
O=C(O)CCNCc1ccc2c(c1)CCC/C2=N\OCc1ccc(C2CCCCC2)c(C(F)(F)F)c1 [Example 1, 3-{[5-(4-Cyclohexyl-3-trifluoromethyl-benzyloxyimino)-5,6,7,8-tetrahydro-naphthalen-2-ylmethyl]-amino}-propionic Acid]	at least 1000 fold	0.78	
O=C(O)C1CN(Cc2ccc3c(c2)CCC/C3=N\OCc2ccc(C3CCCCC3)c(C(F)(F)F)c2)C1 [Example 2, 1-[5-(4-Cyclohexyl-3-trifluoromethyl-benzyloxyimino)-5,6,7,8-tetrahydro-naphthalen-2-ylmethyl]-azetidine-3-carboxylic acid]			0.2
